“Also recorded” adds a separate entry of the source. Like-named read-outs stand apart in the source and are kept apart here.

The assay has as its target HIV-1 protease (Human immunodeficiency virus type 1 group M subtype B, UniProt P03369). Description: biochemical. The method, then: HIV-1 protease activity was measured at 37° C. using a continuous fluorimetric assay based on the method of Toth et al., (Toth et al., 1990, Int. J. Pept. Res. 36 544-550). The substrate, 2-aminobenzoyl-threonine-isoleucine-norleucine-(p-nitro)-phenylalanine-glutamine-arginine-NH2 (Abz-NF^* -6), was synthesised by solid phase peptide synthesis (Kent et al., 1991, In: Peptides 1990: Proceedings of the Twenty-First European Peptide Symposium (Girault, E. and Andrew, D. eds.) pp 172-173, ESCOM, Leiden). Enzyme activity was measured as the increase in fluorescence intensity upon substrate hydrolysis. The change in fluorescence intensity was monitored with a Perkin Elmer LS50B luminescence spectrometer fitted with a thermostatted micro cuvette holder. Measurements were carried out using an excitation wavelength of 320 nm (bandwith 5 nm) and an emission wavelength of […] (bandwith 5 nm).
Inhibition assays were routinely carried out at pH 6.5 and μ=0.1 M using a single substrate concentration. The assay mixtures contained 50 μM Abz-NF^* -6 in 100 mM 2-(N-morpholino)ethanesulphonate buffer, containing 10% (v/v) glycerol and 50 μg/ml bovine serum albumin, in a total final volume of 400 μl. Where inhibitors had to be dissolved in dimethyl sulphoxide or other organic solvents, the final concentration of solvent in the control and inhibition assays were kept absolutely constant because of the severe inhibitory effect of some solvents on the enzyme activity (Bergman et al., 1992, 17th Ann. Lorne Conf. on Protein Struct. and Funct. Abstr.). In all assays, the reaction was initiated by the addition of 10 μl of enzyme solution.

Where [1] appears, read: Table 1, pH 6.5, 37° C., read-out: IC50.
The mark [2] stands for this setting: Table 9, R isomer, read-out: IC50.
Where [3] appears, read: Table 9, S isomer, read-out: IC50.
The mark [4] stands for this setting: Table 10, pH 6.5, 37° C., read-out: IC50.
The mark [5] stands for this setting: Table 2, pH 6.5, 37° C., read-out: IC50.

On to `CC(C)(C)NC(=O)[C@@H]1CCCN1C[C@@H](O)[C@@H]1Cc2ccc(cc2)OCCCC(=O)N[C@@H](CC(N)=O)C(=O)N1` [Compound 38], for which, for the setting “read-out: IC50”, the IC50 is 194 nM. Regarding “AcLeuAsnPhe[^* CHOH--CH2 N]ProIleValOMe [Compound 1, reference compound]”, the IC50 (AcLeuAsnPhe[CHOH--CH2 N]ProIleValOMe, pH 6.5, 37° C., read-out: IC50) turned out to be 60 nM. Besides, under “versus JG-365”, the “reduction of protease inhibition on truncation of the Serine” value is 10 -fold. The compound `CC[C@H](C)[C@H](NC(=O)[C@@H]1CCCN1C[C@@H](O)[C@@H]1Cc2ccc(cc2)OCC(=O)N[C@@H](Cc2ccc(O)cc2)C(=O)N[C@@H](CC(N)=O)C(=O)N1)C(=O)N[C@H](C(N)=O)C(C)C` [Compound 19] gave an IC50 of 165 nM. As to `CC[C@H](C)[C@H](NC(=O)[C@@H]1CCCN1C[C@@H](O)[C@@H]1Cc2ccc(cc2)OCCNCC(=O)N[C@@H](CC(N)=O)C(=O)N1)C(=O)N[C@H](C(N)=O)C(C)C` [Compound 8], under setting [1], the IC50 is 700 nM. Regarding `CC[C@H](C)[C@H](NC(=O)[C@@H]1CCCN1C[C@@H](O)[C@@H]1Cc2ccc(cc2)OCC(O)C(O)C(=O)N[C@@H](CC(N)=O)C(=O)N1)C(=O)N[C@H](C(N)=O)C(C)C` (stereo partly shown) [Compound 10], the “protease inhibition, stated in words” value was “no improvement was observed in potency compared to 3 or 9”. The IC50 under setting [1] came out at 600 nM. With `CC(C)(C)NC(=O)[C@@H]1CCCCN1C[C@H](O)[C@@H]1Cc2ccc(cc2)OCCCC(=O)N[C@@H](CC(N)=O)C(=O)N1` [Compound 45], the IC50 is 5600 nM.

In the case of `NC(=O)C[C@@H]1NC(=O)CCCOc2ccc(cc2)C[C@@H]([C@H](O)CN2CCC[C@H]2C(N)=O)NC1=O` [Compound 6], the IC50 under setting [1] turned out to be 55000 nM. Consider `CC[C@H](C)[C@@H]1NC(=O)[C@@H](NC[C@@H](O)[C@@H]2Cc3ccc(cc3)OCCCC(=O)N[C@@H](CC(N)=O)C(=O)N2)Cc2ccc(cc2)OCCCNC1=O` [Compound 109], for which the “potency relative to compound 110” value was 100 -fold.

`CC(C)C[C@@H]1NC(=O)CCCOc2ccc(cc2)C[C@@H]([C@@H](O)CN2CCCC[C@H]2C(=O)NC(C)(C)C)NC1=O` [Compound 55]: the “protease inhibition, stated in words” value is “slightly better than the isopropyl of 48/49”.

Take `CC[C@H](C)[C@@H]1NC(=O)[C@@H]2CN(CCCCCNC1=O)CCN2C[C@@H](O)[C@@H]1Cc2ccc(cc2)OCCCC(=O)N[C@@H](C(C)C)C(=O)N1` [Compound 123]: the “protease inhibition, stated in words” value is reported as “more successfully mimics JG-365”. Take `CC[C@H](C)[C@H](NC(=O)[C@@H]1CCCN1C[C@H](O)[C@@H]1Cc2ccc(cc2)OCCCC(=O)N[C@@H](CC(N)=O)C(=O)N1)C(N)=O` [Compound 5]: the “protease inhibition, stated in words” value is reported as “reduced potency”. Also, the IC50 (read-out: IC50) turned out to be 850 nM.

For the compound “Ac-SLNFPIV-NH2 [Compound 84, reference compound]”, the IC50 came out at 22 nM under setting [2] and 1 nM under setting [3]. For `CC(C)C1NC(=O)CCCOc2ccc(cc2)CC(C(O)CNC2Cc3ccc(cc3)OCCCNC(=O)C(CCC(N)=O)NC2=O)NC1=O` (stereo not shown) [Compound 131], the “protease inhibition, stated in words” value is “quite active”. For the setting “pH 6.5”, `CC[C@H](C)[C@H](NC(=O)[C@@H]1CCCN1C[C@@H](O)[C@@H]1Cc2ccc(cc2)OCC(=O)N[C@@H](CCCNC(=N)N)C(=O)N[C@@H](CC(N)=O)C(=O)N1)C(=O)N[C@H](C(N)=O)C(C)C` [Compound 23] returned an IC50 of 49 nM. Consider `CC[C@H](C)[C@@H]1NC(=O)[C@@H](NC[C@@H](O)[C@H](Cc2ccc(OCC(=O)OC)cc2)NC(=O)OC(C)(C)C)Cc2ccc(cc2)OCCCNC1=O` [Compound 101], for which, under setting [4], the IC50 was found to be 2 nM.

As to “Ac-LNFPIV-NH2 [Compound 85, reference compound]”, the IC50 runs as follows: under setting [2], 60 nM; under setting [3], 9 nM. Consider `CCCCCCOC(=O)COc1ccc(C[C@H](NC(=O)OC(C)(C)C)[C@H](O)CN[C@H]2Cc3ccc(cc3)OCCCNC(=O)[C@H]([C@@H](C)CC)NC2=O)cc1` [Compound 105], for which the IC50 under setting [4] is 2 nM. As to `CC[C@H](C)[C@H](NC(=O)[C@@H]1CCCN1C[C@H](O)[C@@H]1Cc2ccc(cc2)OCCCC(=O)N[C@@H](CC(N)=O)C(=O)N1)C(=O)N[C@H](C(N)=O)C(C)C` [Compound 3, [2(S),11'(S),8'(S)]-2-[11'-[6',9'-dioxo-8'-(ethanamide)-2'-oxa-7',10'-diazabicyclo[11.2.2]heptadeca-13',15',16'-triene]]-1-(N-(S)-prolyl-(S)-isoleucyl-(S)-valine amide)ethan-2-ol], the IC50 was found to be 39 nM and the “protease inhibition, stated in words” value is given as “successfully functionally mimicked compound 1”. With `CC[C@H](C)[C@@H]1NC(=O)[C@@H](NCC(O)[C@H](Cc2ccccc2)NC(=O)c2cccc(C)c2)Cc2ccc(cc2)OCCCNC1=O` (stereo partly shown) [Compound 92], the IC50 (read-out: IC50) amounted to 50 nM. In turn, `CC[C@H](C)[C@H](NC(=O)[C@@H]1CCCN1C[C@@H](O)[C@@H]1Cc2ccc(cc2)OCC(=O)N[C@@H](Cc2cnc[nH]2)C(=O)N[C@@H](CC(N)=O)C(=O)N1)C(=O)N[C@H](C(N)=O)C(C)C` [Compound 21] gave an IC50 (pH 6.5) of 339 nM. `CC[C@H](C)[C@@H]1NC(=O)[C@@H](NC[C@@H](O)[C@H](Cc2ccc(OCC(=O)O)cc2)NC(=O)OC(C)(C)C)Cc2ccc(cc2)OCCCNC1=O` [Compound 99]: the IC50 under setting [4] came out at 5 nM. `CC(C)CCN(C[C@@H](O)[C@@H]1Cc2ccc(cc2)OCCCC(=O)N[C@@H](C(C)C)C(=O)N1)S(=O)(=O)c1ccc(N)cc1` [Compound 60]: the “protease inhibition, stated in words” value is given as “Greater activity; also recorded: potent inhibitors of HIV-1 protease”. For the same compound, the IC50 (Table 7, pH 6.5, 37° C., read-out: IC50) was 2 nM. With `CC(C)CCN(C[C@@H](O)[C@@H]1Cc2ccc(cc2)OCCCCCC(=O)N[C@@H](C(C)C)C(=O)N1)S(=O)(=O)c1ccc(N)cc1` [Compound 64], under “read-out: IC50”, the IC50 was found to be 2 nM. On to `CC(C)[C@@H]1NC(=O)CCCOc2ccc(cc2)C[C@@H]([C@@H](O)CN2CCN(Cc3ccccc3)CC2C(=O)NC(C)(C)C)NC1=O` (stereo partly shown) [Compound 83], for which the “protease inhibition, stated in words” value is “increased potency”. In the case of `CC(C)CNC(=O)C(Cc1ccccc1)NC[C@@H](O)[C@@H]1Cc2ccc(cc2)OCCCC(=O)N[C@@H](CC(N)=O)C(=O)N1` (stereo partly shown) [Compound 34], the IC50 was 5200 nM. Regarding `CC(C)N(C(=O)[C@@H]1CCCN1C[C@H](O)[C@@H]1Cc2ccc(cc2)OCCCC(=O)N[C@@H](CC(N)=O)C(=O)N1)C(C)C` [Compound 41], 290000 nM corresponded to half-maximal inhibition (IC50) and the “protease inhibition, stated in words” value is given as “much less active”. For the compound `CC(C)(C)NC(=O)C(Cc1ccccc1)NC[C@@H](O)[C@@H]1Cc2ccc(cc2)OCCCC(=O)N[C@@H](CC(N)=O)C(=O)N1` (stereo partly shown) [Compound 30], the IC50 (Table 4, rac (R and S isomer together), read-out: IC50) is 70000 nM. Consider `CC(C)(C)OC(=O)N[C@@H](Cc1ccccc1)[C@H](O)CN[C@H]1Cc2ccc(cc2)OCCCNC(=O)[C@@H](CCC(N)=O)NC1=O` [Compound 107], for which the “protease inhibition, stated in words” value was “slightly enhanced activity”. The IC50 under setting [4] amounted to 250 nM.

In the case of `CC[C@H](C)[C@H](NC(=O)[C@@H]1CCCN1C[C@@H](O)[C@@H]1Cc2ccc(cc2)OCCCCC(=O)N[C@@H](CC(N)=O)C(=O)N1)C(=O)N[C@H](C(N)=O)C(C)C` [Compound 12], the IC50 under setting [5] was 165 nM. For the compound `CC[C@H](C)[C@@H]1NC(=O)[C@@H](NC[C@@H](O)[C@H](Cc2ccccc2)NC(=O)O[C@H]2CCOC2)Cc2ccc(cc2)OCCCNC1=O` [Compound 91, [2R, 3S, 11'S, 8'S]-3-[3S-tetrahydrofuranyloxy]amino-4-phenyl-1-[11'-[7',10'-dioxo-8'-(1-methylpropyl)-2'-oxa-6',9'-diazabicyclo[11.2.2]heptadeca-13',15',16'-triene]amino]butan-2-ol], the “protease inhibition, stated in words” value was “not better as a P2 filler over the t-butyl group in 89”. In addition, the IC50 under setting [2] amounted to 15 nM. For the compound `CC[C@H](C)[C@H](NC(=O)[C@@H]1CCCN1C[C@H](O)[C@@H]1Cc2ccc(cc2)OCC(O)C(O)C(=O)N[C@@H](CC(N)=O)C(=O)N1)C(=O)N[C@H](C(N)=O)C(C)C` (stereo partly shown) [Compound 11], the “protease inhibition, stated in words” value is on record as “no improvement was observed in potency compared to 3 or 9”. In addition, the IC50 under setting [1] stood at 49 nM. For the compound `CC(C)[C@@H]1NC(=O)CCCOc2ccc(cc2)C[C@@H]([C@H](O)CN2CCN(Cc3ccccc3)CC2C(=O)NC(C)(C)C)NC1=O` (stereo partly shown) [Compound 82], the “protease inhibition, stated in words” value is on record as “increased potency”. `CC[C@H](C)[C@H](NC(=O)[C@@H]1CCCN1C[C@H](O)[C@@H]1Cc2ccc(cc2)OCCCCC(=O)N[C@@H](CC(N)=O)C(=O)N1)C(=O)N[C@H](C(N)=O)C(C)C` [Compound 13]: the “protease inhibition, stated in words” value was “no dramatic increase in potency”. The IC50 under setting [5] was 26 nM.

The compound `CC[C@H](C)[C@H](NC(=O)[C@@H]1CCCN1C[C@H](O)[C@@H]1Cc2ccc(cc2)OCC(=O)N[C@@H](Cc2cnc[nH]2)C(=O)N[C@@H](CC(N)=O)C(=O)N1)C(=O)N[C@H](C(N)=O)C(C)C` [Compound 20] returned an IC50 (pH 6.5) of 26 nM.

One may read the IC50 as the midpoint of a concentration-inhibition curve.

For the origin of these results see US6043357A, “HIV protease inhibitors” (The University of Queensland, priority 1994, dated 2000).
